In PubChem BioAssay AID2060883 (Molecular Pharmacology Branch, DTP, NCI, 2025):
One block for each compound: values may come before it.

Test system: 843782-103-R-J1-PDC complex spheroid viability
Test: Anticancer human tumor 843782-103-R-J1-PDC patient-derived lung adenocarcinoma cell line growth inhibition [RAS]
Settings: for IC50: curve of first compound; for viability, T/C: stronger effect = lower value
How it was run: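 Tumour cells grown as complex spheroids with HUVEC endothelial cells and mesenchymal stem cells, treated with RAS pathway inhibitor combinations. Each agent spans half-log steps from near clinical Cmax, or 10 microM where Cmax is unknown.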

[1] = second compound 0.000949 µM, first compound 0.0316 µM
[2] = second compound 0.000949 µM, first compound 0.1 µM
[3] = second compound 0.000949 µM, first compound 0.316 µM
[4] = second compound 0.000949 µM, first compound 1 µM
[5] = second compound 0.000949 µM, first compound 3.16 µM
[6] = second compound 0.000949 µM, first compound 10 µM
[7] = second compound 0.003 µM, first compound 0.0316 µM
[8] = second compound 0.003 µM, first compound 0.1 µM
[9] = second compound 0.003 µM, first compound 0.316 µM
[10] = second compound 0.003 µM, first compound 1 µM
[11] = second compound 0.003 µM, first compound 3.16 µM
[12] = second compound 0.003 µM, first compound 10 µM
[13] = second compound 0.00949 µM, first compound 0.0316 µM
[14] = second compound 0.00949 µM, first compound 0.1 µM
[15] = second compound 0.00949 µM, first compound 0.316 µM
[16] = second compound 0.00949 µM, first compound 1 µM
[17] = second compound 0.00949 µM, first compound 3.16 µM
[18] = second compound 0.00949 µM, first compound 10 µM
[19] = second compound 0.03 µM, first compound 0.0316 µM
[20] = second compound 0.03 µM, first compound 0.1 µM
[21] = second compound 0.03 µM, first compound 0.316 µM
[22] = second compound 0.03 µM, first compound 1 µM
[23] = second compound 0.03 µM, first compound 3.16 µM
[24] = second compound 0.03 µM, first compound 10 µM
[25] = second compound 0.0949 µM, first compound 0.0316 µM
[26] = second compound 0.0949 µM, first compound 0.1 µM
[27] = second compound 0.0949 µM, first compound 0.316 µM
[28] = second compound 0.0949 µM, first compound 1 µM
[29] = second compound 0.0949 µM, first compound 3.16 µM
[30] = second compound 0.0949 µM, first compound 10 µM
[31] = second compound 0.3 µM, first compound 0.0316 µM
[32] = second compound 0.3 µM, first compound 0.1 µM
[33] = second compound 0.3 µM, first compound 0.316 µM
[34] = second compound 0.3 µM, first compound 1 µM
[35] = second compound 0.3 µM, first compound 3.16 µM
[36] = second compound 0.3 µM, first compound 10 µM
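Note: viability read after seven days of compound exposure.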

IC50 (second compound 0.000949 µM): 35.2 nM | IC50 (second compound 0.003 µM): < 31.6 nM | IC50 (second compound 0.00949 µM): 38.4 nM | IC50 (second compound 0.03 µM): 34.8 nM | IC50 (second compound 0.0949 µM): 42.1 nM | IC50 (second compound 0.3 µM): < 31.6 nM
Structure (SMILES): CC(Nc1ccc2c(c1)OCCn1cc(N3C(=O)OCC3C(F)F)nc1-2)C(N)=O (centres undefined) + CCn1c(-c2cccnc2C(C)OC)c2c3cc(ccc31)N1CCOC(CC(NC(=O)C(C(C)C)N(C)C(=O)C3(F)CCN(C(=O)C#CC(C)(C)N(C)C)CC3)C(=O)N3CCCC(N3)C(=O)OCC(C)(C)C2)C1
viability, T/C [1]: 52.9% | viability, T/C [2]: 31.6% | viability, T/C [3]: 31.5% | viability, T/C [4]: 16.4% | viability, T/C [5]: 14.3% | viability, T/C [6]: 7.59% | viability, T/C [7]: 44.2% | viability, T/C [8]: 36.5% | viability, T/C [9]: 25.6% | viability, T/C [10]: 25.1% | viability, T/C [11]: 14.9% | viability, T/C [12]: 9.07% | viability, T/C [13]: 53% | viability, T/C [14]: 37.7% | viability, T/C [15]: 23.8% | viability, T/C [16]: 19.6% | viability, T/C [17]: 14.1% | viability, T/C [18]: 8.01% | viability, T/C [19]: 52% | viability, T/C [20]: 34.8% | viability, T/C [21]: 24.9% | viability, T/C [22]: 18.9% | viability, T/C [23]: 13.8% | viability, T/C [24]: 7.4% | viability, T/C [25]: 56% | viability, T/C [26]: 32.5% | viability, T/C [27]: 24.1% | viability, T/C [28]: 21.1% | viability, T/C [29]: 13.9% | viability, T/C [30]: 7.55% | viability, T/C [31]: 50.3% | viability, T/C [32]: 35.7% | viability, T/C [33]: 25.6% | viability, T/C [34]: 19.4% | viability, T/C [35]: 10.7% | viability, T/C [36]: 6.72%

IC50 (second compound 0.000949 µM): > 10000 nM | IC50 (second compound 0.003 µM): > 10000 nM | IC50 (second compound 0.00949 µM): > 10000 nM | IC50 (second compound 0.03 µM): > 10000 nM | IC50 (second compound 0.0949 µM): > 10000 nM | IC50 (second compound 0.3 µM): > 10000 nM
Structure (SMILES): C[C@@H](NC(=O)c1ncnc(N)c1Cl)c1ncc(C(=O)Nc2cc(C(F)(F)F)c(Cl)cn2)s1 + CCn1c(-c2cccnc2C(C)OC)c2c3cc(ccc31)N1CCOC(CC(NC(=O)C(C(C)C)N(C)C(=O)C3(F)CCN(C(=O)C#CC(C)(C)N(C)C)CC3)C(=O)N3CCCC(N3)C(=O)OCC(C)(C)C2)C1
viability, T/C [1]: 83.6% | viability, T/C [2]: 84.5% | viability, T/C [3]: 81.7% | viability, T/C [4]: 79.2% | viability, T/C [5]: 78.3% | viability, T/C [6]: 79.2% | viability, T/C [7]: 77.5% | viability, T/C [8]: 80.8% | viability, T/C [9]: 80.2% | viability, T/C [10]: 75.2% | viability, T/C [11]: 89.1% | viability, T/C [12]: 82.1% | viability, T/C [13]: 76.6% | viability, T/C [14]: 88.9% | viability, T/C [15]: 84.4% | viability, T/C [16]: 80.3% | viability, T/C [17]: 78.6% | viability, T/C [18]: 77.5% | viability, T/C [19]: 88.5% | viability, T/C [20]: 83.4% | viability, T/C [21]: 81.4% | viability, T/C [22]: 79.7% | viability, T/C [23]: 95.9% | viability, T/C [24]: 68.2% | viability, T/C [25]: 81.2% | viability, T/C [26]: 86.1% | viability, T/C [27]: 81.5% | viability, T/C [28]: 79% | viability, T/C [29]: 88.8% | viability, T/C [30]: 75.3% | viability, T/C [31]: 75.7% | viability, T/C [32]: 82.7% | viability, T/C [33]: 77.9% | viability, T/C [34]: 75.4% | viability, T/C [35]: 80.1% | viability, T/C [36]: 76.7%
